Results as given in ChEMBL document CHEMBL3102815, “Structure Guided Optimization, in Vitro Activity, and in Vivo Activity of Pan-PIM Kinase Inhibitors” (ACS Med Chem Lett, 2013).
pKi: −log10 of the molar value.

Legend:
[1] = target: T1, Serine/threonine-protein kinase pim-3 (Homo sapiens, UniProt Q86V86); assay: Inhibition of PIM3 (unknown origin)
[2] = target: T2, Serine/threonine-protein kinase pim-1 (Homo sapiens, UniProt P11309)
[3] = target: T3, Serine/threonine-protein kinase pim-2 (Homo sapiens, UniProt Q9P1W9)
[4] = target: T3, Serine/threonine-protein kinase pim-2; assay: Inhibition of PIM2 (unknown origin) using NH2-AGAGRSRHSSYPAGT-OH as substrate by Kinase-Glo assay
[5] = target: T2, Serine/threonine-protein kinase pim-1; assay: Inhibition of PIM1 (unknown origin) using NH2-AGAGRSRHSSYPAGT-OH as substrate by Kinase-Glo assay
[6] = target: T1, Serine/threonine-protein kinase pim-3; assay: Inhibition of PIM3 (unknown origin) using NH2-AGAGRSRHSSYPAGT-OH as substrate by Kinase-Glo assay
[7] = test system: EOL1; assay: Antitumor activity against human EOL-1 cells xenografted in po dosed mouse administered daily; format: functional, organism-based
[8] = target: T2, Serine/threonine-protein kinase pim-1; assay: Inhibition of PIM1 (unknown origin) using Biotin-AGAGRSRHSSYPAGT-OH as substrate after 2 hrs by AlphaScreen assay
[9] = target: T1, Serine/threonine-protein kinase pim-3; assay: Inhibition of PIM3 (unknown origin) using Biotin-AGAGRSRHSSYPAGT-OH as substrate after 2 hrs by AlphaScreen assay
[10] = target: T3, Serine/threonine-protein kinase pim-2; assay: Inhibition of PIM2 (unknown origin) using Biotin-AGAGRSRHSSYPAGT-OH as substrate after 2 hrs by AlphaScreen assay

T3 sequence (Q9P1W9 whole entry): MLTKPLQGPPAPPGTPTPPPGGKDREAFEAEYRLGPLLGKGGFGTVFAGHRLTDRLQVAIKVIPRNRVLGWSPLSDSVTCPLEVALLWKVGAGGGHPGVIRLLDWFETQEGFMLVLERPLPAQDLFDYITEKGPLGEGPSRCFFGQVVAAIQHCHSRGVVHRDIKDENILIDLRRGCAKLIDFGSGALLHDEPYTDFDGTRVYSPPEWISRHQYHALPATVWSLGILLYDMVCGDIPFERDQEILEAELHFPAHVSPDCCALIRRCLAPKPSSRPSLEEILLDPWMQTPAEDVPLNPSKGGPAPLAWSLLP
T2 sequence (P11309 whole entry): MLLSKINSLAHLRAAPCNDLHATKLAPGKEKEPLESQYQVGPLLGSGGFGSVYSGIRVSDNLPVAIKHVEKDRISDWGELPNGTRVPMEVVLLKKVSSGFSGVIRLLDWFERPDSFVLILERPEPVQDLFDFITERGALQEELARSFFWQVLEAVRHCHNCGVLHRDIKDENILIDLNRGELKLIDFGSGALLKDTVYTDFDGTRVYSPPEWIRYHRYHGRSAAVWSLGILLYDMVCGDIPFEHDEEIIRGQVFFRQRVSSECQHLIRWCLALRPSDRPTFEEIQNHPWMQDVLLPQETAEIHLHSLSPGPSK

Row | Compound | pKi [1] | pKi [2] | pKi [3] | also measured
1 | O=C(Nc1ccccc1N1CCCCC1)c1cscn1 | < 4.90 | 5.74 | < 4.90 | –
2 | Nc1ccc(-c2ccccc2Cl)nc1C(=O)Nc1cnccc1N1CCC[C@H](N)C1 | – | – | – | pKi [4]: > 9.00; pKi [5]: > 9.00; pKi [6]: > 9.00
3 | NCC1CCCN(c2ccncc2NC(=O)c2nccnc2N)C1 (racemic) | 7.30 | 7.96 | 6.15 | –
4 | Nc1nccnc1C(=O)Nc1cnccc1N1CCC[C@H](N)C1 | 7.70 | – | 7.15 | –
5 | Nc1ccc(Oc2ccccc2)nc1C(=O)Nc1cnccc1N1CCC[C@H](N)C1 | 7.82 | 8.40 | 6.91 | –
6 | Nc1nccc(-c2ccc(N)c(C(=O)Nc3cnccc3N3CCC[C@H](N)C3)n2)n1 | 8.52 | 9.00 | 7.80 | –
7 | C[C@H]1CN(c2ccncc2NC(=O)c2ccc(F)c(-c3c(F)cccc3F)n2)C[C@@H](N)[C@@H]1O | – | – | – | Activity [7]: Dose-dependent effect
8 | Nc1ccc(-c2c(F)cccc2F)nc1C(=O)Nc1cnccc1N1CCC[C@H](N)C1 | – | – | – | pKi [8]: 11.70; pKi [9]: 11.22; pKi [10]: 11.40
9 | Nc1ccc(-c2ccncc2)nc1C(=O)Nc1cnccc1N1CCC[C@H](N)C1 | 8.30 | – | 8.22 | pKi [5]: > 9.00
10 | Nc1ccc(-c2c(F)cccc2F)nc1C(=O)Nc1cnccc1N1CC[C@@H](O)[C@H](N)C1 | 11.15 | 11.70 | 11.22 | –
11 | Nc1ccc(-c2ccccn2)nc1C(=O)Nc1cnccc1N1CCC[C@H](N)C1 | 8.52 | – | 8.22 | pKi [5]: > 9.00
12 | COc1ccccc1-c1ccc(N)c(C(=O)Nc2cnccc2N2CCC[C@H](N)C2)n1 | – | – | 8.10 | pKi [5]: > 9.00; pKi [6]: > 9.00
13 | CN1CCC(CNc2ccc3ncc(-c4cccc(OC(F)(F)F)c4)n3n2)CC1 [SGI-1776] | 7.62 | – | – | –
14 | Nc1ccc(-c2cccnc2)nc1C(=O)Nc1cnccc1N1CCC[C@H](N)C1 | 8.40 | – | 7.92 | pKi [5]: > 9.00
15 | Nc1ccc(-c2ccccc2C(F)(F)F)nc1C(=O)Nc1cnccc1N1CCC[C@H](N)C1 | 8.52 | 8.52 | 8.15 | –

Continued, in another order:

Row | pKi [1] | pKi [2] | pKi [3] | Compound | also measured
16 | < 4.90 | < 4.90 | < 4.90 | CC(=O)Nc1nc(C(=O)Nc2cnc(N)nc2N2CCCCC2)cs1 | –
17 | 5.82 | 6.34 | 5.15 | Nc1nccnc1C(=O)Nc1ccccc1N1CCCCC1 | –
18 | 6.64 | – | < 4.90 | CC(=O)Nc1nc(C(=O)Nc2ccccc2N2CCCCC2)cs1 | –
19 | 5.77 | 6.00 | < 4.90 | CC(=O)Nc1nc(C(=O)Nc2cnc(N)cc2N2CCCCC2)cs1 | –
20 | 6.74 | 7.25 | 6.17 | NCCC(=O)N1CCN(c2ccncc2NC(=O)c2nccnc2N)CC1 | –
21 | 7.05 | 7.52 | 5.80 | Nc1nccnc1C(=O)Nc1cnccc1N1CCCCC1 | –
22 | < 4.90 | 4.91 | < 4.90 | O=C(Nc1ccccc1N1CCCCC1)c1ncccc1O | –
23 | 7.70 | 7.74 | 6.96 | Nc1cccnc1C(=O)Nc1cnccc1N1CCC[C@H](N)C1 | –
24 | 6.31 | 6.91 | 5.70 | NCC(=O)N1CCN(c2ccncc2NC(=O)c2nccnc2N)CC1 | –
25 | 6.66 | 7.21 | < 4.90 | CC(=O)Nc1nc(C(=O)Nc2cnccc2N2CCCCC2)cs1 | –
26 | < 4.90 | < 4.90 | < 4.90 | CC(=O)Nc1nc(C(=O)Nc2cncnc2N2CCCCC2)cs1 | –
27 | 4.96 | 5.64 | < 4.90 | Nc1cccc(C(=O)Nc2ccccc2N2CCCCC2)n1 | –
28 | 6.85 | 7.23 | 5.20 | CC(=O)Nc1nc(C(=O)Nc2ccncc2N2CCCCC2)cs1 | –
29 | 6.00 | 6.09 | < 4.90 | Nc1nccnc1C(=O)Nc1cnccc1N1CCNCC1 | –
30 | 4.92 | 5.48 | < 4.90 | Nc1cccnc1C(=O)Nc1ccccc1N1CCCCC1 | –
31 | < 4.90 | < 4.90 | < 4.90 | O=C(Nc1ccccc1N1CCCCC1)c1ncc[nH]1 | –
